Test in all cases: DTP human tumour cell line panel, 48 h
Assay [1] relates to UACC-257 melanoma.
The subject of assay [2] is M14 melanoma.
Assay [3] deals with EKVX NSCLC.
For assay [4], the system named is KM12 colon.
In assay [5] the test system is HT29 colon.
Assay [6] concerns 786-0 renal.
In assay [7] the test system is SF-539 CNS.
Assay [8] concerns HOP-62 NSCLC.
Assay [9] concerns OVCAR-3 ovarian.
The subject of assay [10] is SR leukemia.

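Cells were grown in 96-well plates and exposed to each compound for 48 hours at five concentrations; endpoints were interpolated linearly between bracketing concentrations, or set to the highest concentration if not reached. GI50 = concentration required for 50% inhibition of growth. TGI denotes the concentration required for complete inhibition of growth.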

These results are taken from PubChem BioAssay (NCI).

A word on the TGI: it is the concentration at which net growth stops. For the molecule `COC1=CC23CCCN2CCc2cc4c(cc2C3C1O)OCO4` (stereo not drawn), the TGI in [1], in [2], in assay [3], in assay [4], in assay [5] and in assay [6] was more than 100 µM in each case. In addition, the TGI in [7] was more than 100 µM.

For `CC1=C(C(=O)Nc2cc(=O)n(C)c(=O)n2C)C(c2ccc([N+](=O)[O-])cc2)C(C(=O)Nc2cc(=O)n(C)c(=O)n2C)=C(C)N1`, the TGI in assay [1], in assay [2], in assay [3], in assay [4], in [5] and in assay [6] was more than 100 µM in each case. The TGI in [7], in assay [8] and in assay [9] was more than 100 µM throughout.

On to `CN(CCc1ccccn1)c1nc(=[N+](C)C)ss1`, for which the TGI in assay [1], in assay [2], in assay [3], in [4], in assay [5] and in [6] was more than 100 µM in each case. The TGI in assay [7], in assay [8] and in [9] was more than 100 µM in each case.

Regarding `CC(=O)C1C(=O)NC(=O)C1=O` (stereo not drawn), the TGI in [1], in [2], in assay [3], in [4], in assay [5] and in assay [6] was more than 100 µM each time. For the same molecule, the TGI in assay [7], in assay [8] and in assay [9] was more than 100 µM throughout.

A word on the GI50: it is the concentration that inhibits growth by half. Take `CN(C)c1ncc(-c2ccc(C(F)(F)F)cc2)c(NC2CCCCCC2)n1`: the GI50 in assay [1] is 16.8 µM; in [2] it was 24 µM; in assay [4] it was 20.5 µM; in assay [5] it was 11.4 µM; in assay [6], 14.8 µM; in [7] it was 21.7 µM. Also, the GI50 in [8] is 24.5 µM; in assay [9] it was 16.3 µM. In addition, the TGI in assay [1] was 54 µM; in assay [2], more than 100 µM; in assay [4] it was 63.3 µM; in assay [5] it was 32.9 µM; in assay [6] it was 33.4 µM; in [7], 55.2 µM. For the same molecule, the figures for the TGI in [8] and in [9] were 61 µM and 33.3 µM, respectively.

On to `CC(C)C1CC2C(=O)N(c3ccccc3)C(=O)C2c2[nH]c3ccccc3c21` (stereo not drawn), for which the TGI in [1], in assay [2], in assay [3], in assay [4], in assay [5] and in assay [6] was more than 100 µM in each case. For the same molecule, the TGI in [7] is 67.5 µM; in assay [8] it was more than 100 µM; in assay [9] it was 38 µM.

Take `CS(=O)(=O)Nc1cccc(-c2cc(-c3ccccc3Cl)c(C#N)c(N)n2)c1`: the GI50 in assay [1] was 0.5 µM; in [2] it was 0.464 µM; in assay [3] it was 2.38 µM; in assay [4] it was 0.443 µM; in [5] it was 0.389 µM; in [6], 0.803 µM. In addition, the results for the GI50 in [7], in assay [8] and in [9] were 0.361 µM, 0.558 µM and 0.298 µM, respectively. Further, the TGI was found to be 21.4 µM in [1]; 14.6 µM in [2]; 21.4 µM in assay [3]; 13.1 µM in [4]; 11.9 µM in [5]; 14.4 µM in [6]. For the same molecule, the TGI in assay [7] came to 2.72 µM; in assay [8], 16.6 µM; in assay [9], 2.8 µM.

Consider `CC1=C(C(=O)NCc2ccccc2)C(c2ccc([N+](=O)[O-])cc2)C(C(=O)NCc2ccccc2)=C(C)N1`, for which the TGI was more than 100 µM in assay [1]; 48.5 µM in [2]; more than 100 µM in [3]; more than 100 µM in [4]; 33.9 µM in assay [5]; more than 100 µM in [6]. The TGI in [7], in assay [8] and in assay [9] was more than 100 µM each time.

For the molecule `Nc1nc2cc3ccc(C4CC(O)C(CO)O4)cc3cc2c(=O)[nH]1` (stereo not drawn), the GI50 in [1], in assay [2], in assay [3], in assay [5], in assay [6] and in assay [7] was more than 100 µM in each case. The GI50 in assay [8] and in assay [9] was more than 100 µM throughout. Besides, the TGI in assay [1], in [2], in [3], in [5], in [6] and in [7] was more than 100 µM throughout. Moreover, the TGI in [8] and in assay [9] was more than 100 µM throughout.

As to `CN1C(c2ccccc2)CS(=O)(=O)CS1(=O)=O` (stereo not drawn), the TGI in [1], in assay [2], in assay [3], in assay [4], in assay [5] and in [6] was more than 100 µM throughout. The values for the TGI in assay [7], in [8] and in assay [9] were more than 100 µM, more than 100 µM and 88.7 µM, respectively.

For the molecule `O=C(/C=N/O)Nc1cc(Cl)c(Cl)cc1Cl`, the TGI in assay [1] is 87.4 µM; in assay [2] it was more than 100 µM; in [3], 96.9 µM; in assay [4], 84.3 µM; in assay [5], more than 100 µM; in assay [6] it was more than 100 µM. The TGI is more than 100 µM in [7], more than 100 µM in assay [8] and 79.5 µM in assay [9].

With `CCN1C2=NCCN2S(=O)(=O)c2ccccc21`, the TGI in assay [1], in [2], in [3], in [4], in [5] and in assay [6] was more than 100 µM in each case. The TGI in [7], in [8] and in [9] was more than 100 µM throughout.

For `Cc1nccc2c3ccc(OCc4cn(-c5ccc(Cl)cc5)nn4)cc3n(CCCc3ccccc3)c12`, the GI50 in [1] was 4.58 µM; in assay [2], 0.616 µM; in assay [10], 0.789 µM; in assay [3], 12.3 µM; in assay [4] it was 6.21 µM; in assay [5] it was 3.07 µM. Besides, the GI50 in assay [6] is 0.649 µM; in assay [7], 4.24 µM; in [9] it was 6.68 µM. For the same molecule, the TGI in assay [1] was 13.4 µM; in assay [2], 1.26 µM; in assay [10], 2.25 µM; in [3] it was more than 33.3 µM; in [4], more than 33.3 µM; in [5], more than 33.3 µM. The TGI in assay [6] is 1.39 µM; in assay [7], 10.6 µM; in assay [9] it was 17.7 µM.

On to `Cc1cc2cn3c4ccc(O)cc4[nH]c(=O)c3c2cc1C`, for which the GI50 in assay [1] is 0.0416 µM; in assay [10], 0.0342 µM; in assay [3] it was 0.403 µM; in assay [4] it was 0.0374 µM; in assay [6], 0.0696 µM; in assay [7] it was 0.0223 µM. The GI50 in assay [8] was 0.0415 µM; in assay [9] it was 0.0125 µM. Also, the TGI in assay [1] was found to be 1.31 µM; in assay [10], 0.415 µM; in assay [3], 1.85 µM; in assay [4] it was 0.553 µM; in assay [6], 1.83 µM; in assay [7], 0.0601 µM. For the same molecule, the TGI in assay [8] worked out at 1.33 µM; in assay [9], 0.0399 µM.

For `COc1cc2c3c(n(CCCNCCCNCCCNCCCN)c(=O)c2cc1OC)-c1cc2c(cc1C3=O)OCO2`, the GI50 in assay [1] was 3.72 µM; in assay [2], 2.84 µM; in assay [3], 1.18 µM; in assay [4] it was 1.73 µM; in [5], 2.28 µM; in assay [6], 2.31 µM. Also, the GI50 in [8] is 3.01 µM; in assay [9] it was 1.57 µM. Also, the TGI was found to be 17.2 µM in [1]; 14.2 µM in assay [2]; 3.5 µM in assay [3]; 4.03 µM in assay [4]; 16.4 µM in [5]; 7.68 µM in assay [6]. In addition, the TGI is 13 µM in assay [8] and 3.88 µM in assay [9].

As for `O=C(CC1(O)C(=O)Nc2ccccc21)c1ccco1` (stereo not drawn), the TGI in assay [1], in assay [2], in [3], in assay [5], in [6] and in assay [7] was more than 100 µM each time. Also, the TGI in assay [8] and in assay [9] was more than 100 µM throughout.

For `CC(=O)OC1CC2Oc3ccc(C)cc3C(C)(O2)C1=O` (stereo not drawn), the TGI in assay [1], in assay [2], in assay [3], in [4], in assay [5] and in [6] was more than 100 µM in each case. Besides, the TGI in [7], in [8] and in assay [9] was more than 100 µM each time.

Turning to `Cc1ccc(NC(=O)C(=O)CC(=O)C2CCOC2=O)c(C)c1` (stereo not drawn), the TGI in assay [1], in assay [2], in assay [3], in assay [4], in [5] and in assay [6] was more than 100 µM each time. Besides, the TGI in assay [7], in assay [8] and in assay [9] was more than 100 µM each time.

For the molecule `O=C(Cc1nc2ccccc2s1)C(=O)Nc1cccc(Cl)c1`, the TGI in assay [1], in assay [2], in assay [3], in assay [4], in [5] and in assay [6] was more than 100 µM in each case. Moreover, the TGI in [7], in assay [8] and in assay [9] was more than 100 µM in each case.

On to `COc1cc(O)c2c(c1)C(=O)C=C(Cl)C2=O`, for which the TGI in assay [1], in [2], in assay [3], in assay [4], in [5] and in [6] was more than 100 µM in each case. Moreover, the TGI in [7] and in assay [9] was more than 100 µM each time.

Turning to `CC(=O)O[C@@H]1[C@@H](O)C2=C3[C@]4(C)[C@@H]1C(C)(C)C(=O)C[C@@H]4[C@]3(O)[C@H](OC(C)=O)[C@@]1(C[C@@H]1C)C2=O`, the TGI in assay [1] came to 37.2 µM; in assay [2], 91.9 µM; in assay [3], 40.7 µM; in [4], 30.8 µM; in [6], 32.4 µM; in assay [7], 56.1 µM. In addition, in assay [9], the TGI amounted to 36.5 µM.

Consider `O/N=C1/C(=C/c2ccc(Oc3ccccc3)cc2)CCCC1C(NO)c1ccc(Oc2ccccc2)cc1` (stereo not drawn), for which the TGI in assay [1] is more than 100 µM; in [2] it was more than 100 µM; in [3], more than 100 µM; in assay [4], more than 100 µM; in assay [5], 30.5 µM; in assay [6] it was more than 100 µM. Besides, the TGI in [7], in assay [8] and in [9] was more than 100 µM throughout.

Consider `CC1(C)OB(O)OC1(C)C`, for which the TGI in assay [1], in assay [2], in [3], in [4], in assay [5] and in [6] was more than 100 µM throughout. The TGI in assay [7], in assay [8] and in assay [9] was more than 100 µM throughout.

`O=C(/C=C/C=C/c1c(C2CC2)nc2ccccc2c1-c1ccc(F)cc1)c1cccs1`: the GI50 is 1.97 µM in assay [1]; 3.09 µM in assay [3]; 1.79 µM in assay [4]; 1.49 µM in [5]; 2.76 µM in assay [6]; 2.39 µM in [7]. The GI50 is 2.74 µM in assay [8] and 1.5 µM in [9]. In addition, the TGI in assay [1] is 6.22 µM; in assay [3] it was more than 100 µM; in assay [4], 8.05 µM; in assay [5], 5.47 µM; in assay [6] it was more than 100 µM; in assay [7] it was 6.65 µM. Moreover, the values for the TGI in [8] and in [9] were 7.25 µM and 4.99 µM, respectively.
